Test results taken from patent publication US8168651B2, “Protein kinase modulators” (Cylene Pharmaceuticals, Inc., priority 2008, dated 2012).
Like-named read-outs stand apart in the source and are kept apart here.

Tests used:
recombinant human PIM1 = recombinant human PIM1 (Homo sapiens (Human), UniProt P11309); assay: PIM-1 kinase activity in cell-free in vitro assay; assay type: biochemical; conditions: for inhibition at 0.5 µM: read-out: PIM-1: % inh 500 nM
[1] = test system: HCT-116 human colorectal carcinoma cells; assay: Cell-proliferation assay using Alamar Blue dye; assay type: cell-based; conditions: Homo sapiens;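 further: cells exposed to compound for about 4 days, then Alamar Blue added and dye fluorescence read after about 4 h, compared with medium-only control wells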
[2] = HCT-116, read-out: HCT-116 (uM), cell proliferation modulatory activity, HCT-116, first column
[3] = HCT-116, read-out: HCT-116 (uM), cell proliferation modulatory activity, HCT-116, second column
[4] = HCT-116, HCT-116, second column, read-out: HCT-116 (uM), cell proliferation modulatory activity
[5] = 500 nM compound, cell-free assay

Sequence of recombinant human PIM1 (P11309 whole entry): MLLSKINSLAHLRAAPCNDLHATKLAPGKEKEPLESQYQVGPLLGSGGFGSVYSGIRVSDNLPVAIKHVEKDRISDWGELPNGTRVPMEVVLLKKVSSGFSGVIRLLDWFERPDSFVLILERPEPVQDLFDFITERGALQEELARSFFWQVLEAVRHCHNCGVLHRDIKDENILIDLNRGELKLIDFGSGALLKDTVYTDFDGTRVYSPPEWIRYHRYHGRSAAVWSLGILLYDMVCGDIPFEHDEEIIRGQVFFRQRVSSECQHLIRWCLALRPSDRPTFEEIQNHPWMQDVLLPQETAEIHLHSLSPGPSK

Row | SMILES | inhibition at 0.5 µM (recombinant human PIM1; 500 nM compound, cell-free) [%] | IC50 [1, 2] [µM] | IC50 (recombinant human PIM1; cell-free) [µM] | IC50 [1, 3] [µM] | further results
1 | O=C(O)c1ccc2c(c1)nc(OCCCO)c1ccsc12 | -34.7 | 10 |  |  | 
2 | O=C(O)c1ccc2c(c1)nc(NCCCO)c1ccsc12 | -0.688 | 10 |  |  | 
3 | O=C(O)c1ccc2c(c1)nc(NCCO)c1ccsc12 | -49.4 | 10 |  |  | 
4 | O=C(O)c1ccc2c(c1)nc(NCc1ccccn1)c1ccsc12 | -36.6 | 10 |  |  | 
5 | O=C(O)c1ccc2c(c1)nc(NCCN1CCOCC1)c1ccsc12 | -10 | 10 |  |  | 
6 | O=C(O)c1ccc2c(c1)nc(NCc1ccncc1)c1ccsc12 | 71.3 | 10 |  |  | 
7 | COc1ccccc1Nc1nc2cc(C(=O)O)ccc2c2sccc12 | 0.445 | 10 |  |  | 
8 | O=C(O)c1ccc2c(c1)nc(Nc1cccc(O)c1)c1ccsc12 | 6.5 | 10 |  |  | 
9 | COc1ccc(Nc2nc3cc(C(=O)O)ccc3c3sccc23)c(OC)c1 | 3.88 | 10 |  |  | 
10 | O=C(O)c1ccc2c(c1)nc(NCCc1ccccc1)c1ccsc12 | 19.9 | 10 |  |  | 
11 | O=C(O)c1ccc2c(c1)nc(Nc1ccc(F)cc1)c1ccsc12 | 66.7 | 10 | 0.32 |  | 
12 | Cc1ccccc1Nc1nc2cc(C(=O)O)ccc2c2sccc12 | -15.5 | 10 |  |  | 
13 | COc1cccc(Nc2nc3cc(C(=O)O)ccc3c3sccc23)c1 | 23.4 | 10 |  |  | 
14 | O=C(O)c1ccc2c(c1)nc(Nc1ccc(F)cc1F)c1ccsc12 | 67.2 | 10 | 0.362 |  | 
15 | O=C(O)c1ccc2c(c1)nc(NC1CC1)c1ccsc12 | 37.4 | 10 |  |  | 
16 | O=C(O)c1ccc2c(c1)nc(N1CCc3ccccc31)c1ccsc12 | -9.95 | 10 |  |  | 
17 | COc1ccc(Nc2nc3cc(C(=O)O)ccc3c3sccc23)cc1Cl | -2.65 | 10 |  |  | 
18 | O=C(O)c1ccc2c(c1)nc(Nc1ccccc1O)c1ccsc12 | -3.12 | 10 |  |  | 
19 | O=C(O)c1ccc2c(c1)nc(Nc1ccc(N3CCOCC3)cc1)c1ccsc12 |  | 10 |  |  | inhibition at 0.5 µM (recombinant human PIM1): 1.17%
20 | COc1ccc(OC)c(Nc2nc3cc(C(=O)O)ccc3c3sccc23)c1 | -3.22 | 10 |  |  | 
21 | Fc1ccc(Nc2nc3cc(-c4nnn[nH]4)ccc3c3sccc23)cc1Cl | 67.4 | 10 | 0.702 |  | 
22 | COc1cccc(Nc2nc3cc(-c4nnn[nH]4)ccc3c3sccc23)c1 | 55.7 | 10 | 0.352 |  | 
23 | Clc1ccc(Nc2nc3cc(-c4nnn[nH]4)ccc3c3sccc23)cc1 | 66.4 | 10 | 0.501 |  | 
24 | COc1ccc(Nc2nc3cc(-c4nnn[nH]4)ccc3c3sccc23)cc1Cl | 25.6 | 10 |  |  | 

Row | SMILES | inhibition at 0.5 µM (recombinant human PIM1; 500 nM compound, cell-free) [%] | IC50 [1, 2] [µM] | IC50 (recombinant human PIM1; cell-free) [µM] | IC50 [1, 3] [µM] | further results
25 | CC(C)Oc1cccc(Nc2nc3cc(-c4nnn[nH]4)ccc3c3sccc23)c1 | 31.9 |  |  | > 10 | 
26 | COc1cc(Nc2nc3cc(-c4nnn[nH]4)ccc3c3sccc23)cc(OC)c1 | 55.8 |  | 0.465 | 15 | 
27 | COc1cc(Nc2nc3cc(-c4nnn[nH]4)ccc3c3sccc23)ccc1F | 35 |  |  | > 10 | 
28 | CCOC(=O)c1cccc(Nc2nc3cc(-c4nnn[nH]4)ccc3c3sccc23)c1 | 34 |  |  |  | IC50 [1, 4]: > 10 µM
29 | CC(C)c1cccc(Nc2nc3cc(-c4nnn[nH]4)ccc3c3sccc23)c1 | 35.9 |  |  |  | IC50 [1, 4]: > 10 µM
30 | c1ccc2c(c1)ncn2-c1nc2cc(-c3nnn[nH]3)ccc2c2sccc12 | 71.6 |  | > 1.1 |  | IC50 [1, 4]: 15 µM
31 | CCOc1cccc(Nc2nc3cc(-c4nnn[nH]4)ccc3c3sccc23)c1 | 57.7 |  | 0.384 | > 10 | 
32 | CCc1cccc(Nc2nc3cc(-c4nnn[nH]4)ccc3c3sccc23)c1 | 61 |  | > 1.1 | > 10 | 
33 | c1ccc(CNc2nc3cc(-c4nnn[nH]4)ccc3c3sccc23)cc1 | -21.2 |  |  |  | IC50 [1, 4]: > 10 µM
34 | FC(F)(F)c1cc(Nc2nc3cc(-c4nnn[nH]4)ccc3c3sccc23)ccc1Cl | -46.4 |  |  |  | IC50 [1, 4]: > 10 µM
35 | COc1cc(Nc2nc3cc(-c4nnn[nH]4)ccc3c3sccc23)ccc1C | 34.1 |  |  |  | IC50 [1, 4]: > 10 µM
36 | c1cc2c(Nc3ccc4c(c3)OCO4)nc3cc(-c4nnn[nH]4)ccc3c2s1 | 18 |  |  |  | IC50 [1, 4]: > 10 µM
37 | c1cc2c(Nc3ccc4c(c3)OCCO4)nc3cc(-c4nnn[nH]4)ccc3c2s1 | 26.7 |  |  | > 10 | 
38 | CN(C)CCCNc1nc2cc(-c3nnn[nH]3)ccc2c2sccc12 | 58.2 |  | 0.511 |  | IC50 [1, 4]: 15 µM
39 | N#Cc1ccc2c(c1)nc(Nc1ccccc1)c1ccncc12 | 2.12 |  |  |  | IC50 [1, 4]: 6.9 µM
40 | CN(C)CCNc1nc2cc(C#N)ccc2c2cnccc12 | -11.5 |  |  |  | IC50 [1, 4]: 1.6 µM
41 | O=C(O)c1ccc2c(c1)nc(Nc1cc(Cl)ccc1F)c1ccsc12 | 52.8 |  | 0.42 | > 10 | 
42 | CCOc1cccc(Nc2nc3cc(C(=O)O)ccc3c3sccc23)c1 | 16.8 |  |  | > 10 | 
43 | O=C(O)c1ccc2c(c1)nc(Nc1cccc(Oc3ccccc3)c1)c1ccsc12 | -10.2 |  |  | > 10 | 
44 | NS(=O)(=O)c1cccc(Nc2nc3cc(C(=O)O)ccc3c3sccc23)c1 | 21.7 |  |  | > 10 | 
45 | O=C(c1cccc(Nc2nc3cc(-c4nnn[nH]4)ccc3c3sccc23)c1)N1CCOCC1 | 21 |  |  | > 10 | 
46 | CN(C)CCNC(=O)c1cccc(Nc2nc3cc(-c4nnn[nH]4)ccc3c3sccc23)c1 | 71.1 |  | 0.38 | > 10 | 
47 | COC(=O)CNC(=O)c1cccc(Nc2nc3cc(-c4nnn[nH]4)ccc3c3sccc23)c1 | 48 |  |  | > 10 | 
48 | O=C(NCc1cccnc1)c1cccc(Nc2nc3cc(-c4nnn[nH]4)ccc3c3sccc23)c1 | 29.6 |  |  | > 10 | 

Row | SMILES | inhibition at 0.5 µM (recombinant human PIM1; 500 nM compound, cell-free) [%] | IC50 [1, 2] [µM] | IC50 (recombinant human PIM1; cell-free) [µM] | IC50 [1, 3] [µM] | further results
49 | CN(C)C(=O)c1cccc(Nc2nc3cc(-c4nnn[nH]4)ccc3c3sccc23)c1 | 49.1 |  |  | > 10 | 
50 | CC(=O)N1CCN(C(=O)c2cccc(Nc3nc4cc(-c5nnn[nH]5)ccc4c4sccc34)c2)CC1 | 48.4 |  |  | > 10 | 
51 | CCCNC(=O)c1cccc(Nc2nc3cc(C(=O)O)ccc3c3sccc23)c1 | 13.3 |  |  | > 10 | 
52 | O=C(O)c1ccc2c(c1)nc(Nc1cccc(C(=O)N3CCOCC3)c1)c1ccsc12 | 46.4 |  |  | > 10 | 
53 | O=C(O)CNC(=O)c1cccc(Nc2nc3cc(C(=O)O)ccc3c3sccc23)c1 | 24 |  |  | > 10 | 
54 | CN(C)CCNC(=O)c1cccc(Nc2nc3cc(C(=O)O)ccc3c3sccc23)c1 | 74.7 |  | 0.436 | > 10 | 
55 | O=C(O)c1ccc2c(c1)nc(Nc1cccc(C(=O)NC3CC3)c1)c1ccsc12 | 37.5 |  |  | > 10 | 
56 | CNC(=O)Cc1cccc(Nc2nc3cc(C(=O)O)ccc3c3sccc23)c1 | 38 |  |  | > 10 | 
57 | O=C(O)c1ccc2c(c1)nc(Nc1cccc(Br)c1)c1ccsc12 | 57.9 |  | 0.553 | > 10 | 
58 | O=C(O)c1ccc2c(c1)nc(Nc1cccc(Cl)c1F)c1ccsc12 | 27.6 |  |  | > 10 | 
59 | O=C(O)c1ccc2c(c1)nc(Nc1ccc3[nH]ccc3c1)c1ccsc12 | 51.9 |  | 0.679 | > 10 | 
60 | Cc1cccc(Nc2nc3cc(C(=O)O)ccc3c3sccc23)c1 | 59.1 |  | 0.53 | > 10 | 
61 | O=C(O)c1ccc2c(c1)nc(Nc1ccc3cc[nH]c3c1)c1ccsc12 | 47.2 |  |  | > 10 | 
62 | CCc1cccc(Nc2nc3cc(C(=O)O)ccc3c3sccc23)c1 | 51.6 |  | 0.814 | > 10 | 
63 | O=C(O)c1ccc2c(c1)nc(Nc1cccc(I)c1)c1ccsc12 | 40.5 |  |  | > 10 | 
64 | O=C(O)c1ccc2c(c1)nc(Nc1cccc(F)c1F)c1ccsc12 | 72.9 |  | 0.855 | > 10 | 
65 | O=C(O)c1ccc2c(c1)nc(Nc1cc(F)cc(C(F)(F)F)c1)c1ccsc12 | 82.6 |  | 0.336 | > 10 | 
66 | O=C(O)c1cc(F)cc(Nc2nc3cc(C(=O)O)ccc3c3sccc23)c1 | 51 |  | 0.521 | > 10 | 
67 | O=C(O)c1ccc2c(c1)nc(Nc1cc(F)ccc1F)c1ccsc12 | 67.1 |  | 0.308 | > 10 | 
68 | O=C(O)c1ccc2c(c1)nc(Nc1cccc(S(=O)(=O)NC3CC3)c1)c1ccsc12 | 75.4 |  | 0.568 | > 10 | 
69 | Fc1cc(Cl)cc(Nc2nc3cc(-c4nnn[nH]4)ccc3c3sccc23)c1 | 82 |  | 0.562 | > 10 | 
70 | C#Cc1cccc(Nc2nc3cc(-c4nnn[nH]4)ccc3c3sccc23)c1 | 64.6 |  | 0.716 | > 10 | 
71 | C#Cc1cccc(Nc2nc3cc(C(=O)O)ccc3c3cnc(NCCOC)nc23)c1 |  |  |  |  | inhibition at 0.5 µM (recombinant human PIM1; [5]): 55.5%; IC50 (recombinant human PIM1; cell-free assay): > 1.1 µM; IC50 ([1]; HCT-116, read-out: HCT-116 (uM), cell proliferation modulatory activity, HCT-116, second HCT-116 column (c8)): 8.05 µM
72 | O=C(O)c1ccc2c(c1)nc(Nc1cc(-c3ccccc3)[nH]n1)c1ccncc12 |  |  |  |  | inhibition at 0.5 µM (recombinant human PIM1; [5]): 56%; IC50 (recombinant human PIM1; cell-free assay): > 1.1 µM; IC50 ([1]; HCT-116, second HCT-116 column (c8), read-out: HCT-116 (uM) cell proliferation modulatory activity): > 10 µM
